# Laboratory results as given in patent US20250154141A1 (University of Florida Research Foundation, Incorporated, priority 2021, published 2025).
# Where two headings read alike, the source gives them in different places.
# Experiments:
# MOLT-4 = test: Cell viability assay (MTS) in MOLT-4 cells; type: cell-based; settings: Homo sapiens
# Protocol: (§1) Acute lymphoblastic leukemia cells (MOLT-4 and RS4; 11) were incubated with increasing concentrations of Bcl-xL degraders for 48 h. Cell viability was measured by tetrazolium-based MTS assay.
# RS4; 11 = test: Cell viability assay (MTS) in RS4; 11 cells; type: cell-based; settings: Homo sapiens
# Protocol: as §1
# [1] = MOLT-4, Table 2, 48 hr, MTS, read-out: Anti-Cancer Activity IC50 (48 hr) MOLT-4
# [2] = RS4-11, Table 2, 48 hr, MTS, read-out: Anti-Cancer Activity IC50 (48 hr) RS4, 11
Structure (SMILES),IC50 (MOLT-4; [1]) [nM],IC50 (RS4; 11; [2]) [nM],further results
Cc1ncsc1-c1ccc([C@H](C)NC(=O)[C@@H]2C[C@@H](O)CN2C(=O)[C@@H](NC(=O)CN(C)CC(=O)N2CCC(C3CCN(C[C@]4(C)CCC(c5ccc(Cl)cc5)=C(CN5CCN(c6ccc(C(=O)NS(=O)(=O)c7ccc(N[C@H](CCN8CCCOCC8)CSc8ccccc8)c(S(=O)(=O)C(F)(F)F)c7)cc6)CC5)C4)CC3)CC2)C(C)(C)C)cc1 [Compound 118],–,–,"IC50 (MOLT-4; MOLT-4, Table 2A, 48 hr, MTS, read-out: Anti-Cancer Activity IC50 (48 hr) MOLT-4): < 20 nM; IC50 (RS4; 11; RS4-11, Table 2A, 48 hr, MTS, read-out: Anti-Cancer Activity IC50 (48 hr) RS4, 11): < 20 nM"
"Cc1ncsc1-c1ccc([C@H](C)NC(=O)[C@@H]2C[C@@H](O)CN2C(=O)[C@@H](NC(=O)CNC(=O)c2ccc(N3CCN(CC4(C)CCC(c5ccc(Cl)cc5)=C(CN5CCN(c6ccc(C(=O)NS(=O)(=O)c7ccc(N[C@H](CCN8CCOCC8)CSc8ccccc8)c(S(=O)(=O)C(F)(F)F)c7)cc6)CC5)C4)CC3)cc2)C(C)(C)C)cc1 (stereo partly drawn) [Compound 10, (2S,4R)-1-((2S)-2-(2-(4-(4-((4′-chloro-4-methyl-6-((4-(4-(((4-(((R)-4-morpholino-1-(phenylthio)butan-2-yl)amino)-3-((trifluoromethyl)sulfonyl)phenyl)sulfonyl)carbamoyl)phenyl)piperazin-1-yl)methyl)-2,3,4,5-tetrahydro-[1,1′-biphenyl]-4-yl)methyl)piperazin-1-yl)benzamido)acetamido)-3,3-dimethylbutanoyl)-4-hydroxy-N—((S)-1-(4-(4-methylthiazol-5-yl)phenyl)ethyl)pyrrolidine-2-carboxamide]",100 to 500,100 to 500,–
Cc1ncsc1-c1ccc([C@H](C)NC(=O)[C@@H]2C[C@@H](O)CN2C(=O)[C@@H](NC(=O)CCCCCNC(=O)c2ccc(CN3CCN(C[C@]4(C)CCC(c5ccc(Cl)cc5)=C(CN5CCN(c6ccc(C(=O)NS(=O)(=O)c7ccc(N[C@H](CCN8CCCOCC8)CSc8ccccc8)c(S(=O)(=O)C(F)(F)F)c7)cc6)CC5)C4)CC3)nc2)C(C)(C)C)cc1 [Compound 80],< 20,< 20,–
Cc1ncsc1-c1ccc([C@H](C)NC(=O)[C@@H]2C[C@@H](O)CN2C(=O)[C@@H](NC(=O)COCCOCc2cn(CCCC(=O)NCC3(C)CCC(c4ccc(Cl)cc4)=C(CN4CCN(c5ccc(C(=O)NS(=O)(=O)c6ccc(N[C@H](CCN7CCOCC7)CSc7ccccc7)c(S(=O)(=O)C(F)(F)F)c6)cc5)CC4)C3)nn2)C(C)(C)C)cc1 (stereo partly drawn) [Compound 23],500 to 10000,500 to 10000,–
Cc1ncsc1-c1ccc([C@H](C)NC(=O)[C@@H]2C[C@@H](O)CN2C(=O)[C@@H](NC(=O)CCCCCCC(=O)N2CCN(C[C@]3(C)CCC(c4ccc(Cl)cc4)=C(CN4CCN(c5ccc(C(=O)NS(=O)(=O)c6ccc(N[C@H](CCN7CCCC(F)(F)C7)CSc7ccccc7)c(S(=O)(=O)C(F)(F)F)c6)cc5)CC4)C3)CC2)C(C)(C)C)cc1 [Compound 88],500 to 10000,500 to 10000,–
"Cc1ncsc1-c1ccc([C@H](C)NC(=O)[C@@H]2C[C@@H](O)CN2C(=O)[C@@H](NC(=O)CCCCCCC(=O)N2CCN(C[C@]3(C)CCC(c4ccc(Cl)cc4)=C(CN4CCN(c5ccc(C(=O)NS(=O)(=O)c6ccc(N[C@H](CCN7CCCCC7)CSc7ccccc7)c([N+](=O)[O-])c6)cc5)CC4)C3)CC2)C(C)(C)C)cc1 [Compound 40, (2S,4R)-1-((S)-2-(8-(4-(((R)-4′-chloro-4-methyl-6-((4-(4-(((3-nitro-4-(((R)-1-(phenylthio)-4-(piperidin-1-yl)butan-2-yl)amino)phenyl)sulfonyl)carbamoyl)phenyl)piperazin-1-yl)methyl)-2,3,4,5-tetrahydro-[1,1′-biphenyl]-4-yl)methyl)piperazin-1-yl)-8-oxooctanamido)-3,3-dimethylbutanoyl)-4-hydroxy-N—((S)-1-(4-(4-methylthiazol-5-yl)phenyl)ethyl)pyrrolidine-2-carboxamide]",< 20,< 20,–
"COCC[C@H](CSc1ccccc1)Nc1ccc(S(=O)(=O)NC(=O)c2ccc(N3CCN(CC4=C(c5ccc(Cl)cc5)CCC(C)(CN5CCN(C(=O)CCCCCCC(=O)N[C@H](C(=O)N6C[C@H](O)C[C@H]6C(=O)N[C@@H](C)c6ccc(-c7scnc7C)cc6)C(C)(C)C)CC5)C4)CC3)cc2)cc1[N+](=O)[O-] (stereo partly drawn) [Compound 50, (2S,4R)-1-((2S)-2-(8-(4-((4′-chloro-6-((4-(4-(((4-(((R)-4-methoxy-1-(phenylthio)butan-2-yl)amino)-3-nitrophenyl)sulfonyl)carbamoyl)phenyl)piperazin-1-yl)methyl)-4-methyl-2,3,4,5-tetrahydro-[1,1′-biphenyl]-4-yl)methyl)piperazin-1-yl)-8-oxooctanamido)-3,3-dimethylbutanoyl)-4-hydroxy-N—((S)-1-(4-(4-methylthiazol-5-yl)phenyl)ethyl)pyrrolidine-2-carboxamide]",500 to 10000,20 to 100,–
Cc1ncsc1-c1ccc([C@H](C)NC(=O)[C@@H]2C[C@@H](O)CN2C(=O)[C@@H](NC(=O)CN2CCN(C(=O)CC(=O)N3CCN(C[C@]4(C)CCC(c5ccc(Cl)cc5)=C(CN5CCN(c6ccc(C(=O)NS(=O)(=O)c7ccc(N[C@H](CCN8CCCOCC8)CSc8ccccc8)c(S(=O)(=O)C(F)(F)F)c7)cc6)CC5)C4)CC3)CC2)C(C)(C)C)cc1 [Compound 115],–,–,"IC50 (MOLT-4; MOLT-4, 48 h, read-out: Anti-Cancer Activity IC50 (48 hr) MOLT-4): < 20 nM; IC50 (RS4; 11; RS4-11, 48 h, read-out: Anti-Cancer Activity IC50 (48 hr) RS4, 11): < 20 nM"
"Cc1ncsc1-c1ccc([C@H](C)NC(=O)[C@@H]2C[C@@H](O)CN2C(=O)[C@@H](NC(=O)CCCCCOCc2cn(CC3(C)CCC(c4ccc(Cl)cc4)=C(CN4CCN(c5ccc(C(=O)NS(=O)(=O)c6ccc(N[C@H](CCN7CCOCC7)CSc7ccccc7)c(S(=O)(=O)C(F)(F)F)c6)cc5)CC4)C3)nn2)C(C)(C)C)cc1 (stereo partly drawn) [Compound 20, (2S,4R)-1-((2S)-2-(6-((1-((4′-chloro-4-methyl-6-((4-(4-(((4-(((R)-4-morpholino-1-(phenylthio)butan-2-yl)amino)-3-((trifluoromethyl)sulfonyl)phenyl)sulfonyl)carbamoyl)phenyl)piperazin-1-yl)methyl)-2,3,4,5-tetrahydro-[1,1′-biphenyl]-4-yl)methyl)-1H-1,2,3-triazol-4-yl)methoxy)hexanamido)-3,3-dimethylbutanoyl)-4-hydroxy-N—((S)-1-(4-(4-methylthiazol-5-yl)phenyl)ethyl)pyrrolidine-2-carboxamide]",20 to 100,< 20,"IC50 (MOLT-4; MOLT-4, Table 5, 48 h, read-out: MOLT-4 48 h IC50): 88.1 nM; IC50 (RS4; 11; RS4-11, Table 5, 48 h, read-out: RS4 48 h IC50): 15.6 nM"
Cc1ncsc1-c1ccc([C@H](C)NC(=O)[C@@H]2C[C@@H](O)CN2C(=O)[C@@H](NC(=O)CCCCCCCNC(=O)c2ccc(N3CCN(C[C@]4(C)CCC(c5ccc(Cl)cc5)=C(CN5CCN(c6ccc(C(=O)NS(=O)(=O)c7ccc(N[C@H](CCN8C[C@H]9C[C@@H]8CO9)CSc8ccccc8)c(S(=O)(=O)C(F)(F)F)c7)cc6)CC5)C4)CC3)nc2)C(C)(C)C)cc1 [Compound 74],< 20,20 to 100,–
"Cc1ncsc1-c1ccc([C@H](C)NC(=O)[C@@H]2C[C@@H](O)CN2C(=O)[C@@H](NC(=O)CCCCCCS(=O)(=O)N2CCN(C[C@]3(C)CCC(c4ccc(Cl)cc4)=C(CN4CCN(c5ccc(C(=O)NS(=O)(=O)c6ccc(N[C@H](CCN7CCCOCC7)CSc7ccccc7)c(S(=O)(=O)C(F)(F)F)c6)cc5)CC4)C3)CC2)C(C)(C)C)cc1 [Compound 96, (2S,4R)-1-((S)-2-(7-((4-(((R)-6-((4-(4-(((4-(((R)-4-(1,4-oxazepan-4-yl)-1-(phenylthio)butan-2-yl)amino)-3-((trifluoromethyl)sulfonyl)phenyl)sulfonyl)carbamoyl)phenyl)piperazin-1-yl)methyl)-4′-chloro-4-methyl-2,3,4,5-tetrahydro-[1,1′-biphenyl]-4-yl)methyl)piperazin-1-yl)sulfonyl)heptanamido)-3,3-dimethylbutanoyl)-4-hydroxy-N—((S)-1-(4-(4-methylthiazol-5-yl)phenyl)ethyl)pyrrolidine-2-carboxamide]",< 20,< 20,–
"Cc1ncsc1-c1ccc([C@H](C)NC(=O)[C@@H]2C[C@@H](O)CN2C(=O)[C@@H](NC(=O)CCCCCCC(=O)N2CCN(C[C@]3(C)CCC(c4ccc(Cl)cc4)=C(CN4CCN(c5ccc(C(=O)NS(=O)(=O)c6ccc(N[C@H](CCN7CCCCCC7)CSc7ccccc7)c(S(=O)(=O)C(F)(F)F)c6)cc5)CC4)C3)CC2)C(C)(C)C)cc1 [Compound 60, (2S,4R)-1-((S)-2-(8-(4-(((R)-6-((4-(4-(((4-(((R)-4-(azepan-1-yl)-1-(phenylthio)butan-2-yl)amino)-3-((trifluoromethyl)sulfonyl)phenyl)sulfonyl)carbamoyl)phenyl)piperazin-1-yl)methyl)-4′-chloro-4-methyl-2,3,4,5-tetrahydro-[1,1′-biphenyl]-4-yl)methyl)piperazin-1-yl)-8-oxooctanamido)-3,3-dimethylbutanoyl)-4-hydroxy-N—((S)-1-(4-(4-methylthiazol-5-yl)phenyl)ethyl)pyrrolidine-2-carboxamide]",< 20,< 20,–
Cc1ncsc1-c1ccc([C@H](C)NC(=O)[C@@H]2C[C@@H](O)CN2C(=O)[C@@H](NC(=O)CCCCCNC(=O)c2ccc(N3CCN(C[C@]4(C)CCC(c5ccc(Cl)cc5)=C(CN5CCN(c6ccc(C(=O)NS(=O)(=O)c7ccc(N[C@H](CCN8CCCOCC8)CSc8ccccc8)c(S(=O)(=O)C(F)(F)F)c7)cc6)CC5)C4)CC3)nn2)C(C)(C)C)cc1 [Compound 79],< 20,< 20,–
Cc1ncsc1-c1ccc([C@H](C)NC(=O)[C@@H]2C[C@@H](O)CN2C(=O)[C@@H](NC(=O)CNC(=O)c2ccc(N3CCN(CCN(C)CC4(C)CCC(c5ccc(Cl)cc5)=C(CN5CCN(c6ccc(C(=O)NS(=O)(=O)c7ccc(N[C@H](CCN8CCOCC8)CSc8ccccc8)c(S(=O)(=O)C(F)(F)F)c7)cc6)CC5)C4)CC3)cc2)C(C)(C)C)cc1 (stereo partly drawn) [Compound 13],100 to 500,100 to 500,–
